Literature values in patent publication US10675364B2, “Rhodol fluorophores for near-infrared imaging” (The Board of Trustees of the Leland Stanford Junior …, priority 2015, dated 2020).

Conditions: highly sensitive to pH in the physiological range

pKa: 6.3
SMILES: O=C1OC2(c3ccc(O)cc3Oc3cc(O)ccc32)c2ccccc21 [fluorescein]
